From publication PMC3508718 (Clinical pharmacokinetics, 2012)
Where two headings read alike, the source gives them in different places.

Tests used:
[1] = Model-predicted AUCτ in BP and CVF and CVF:BP AUC ratios; assay type: in vivo, HIV-infected pre-menopausal women
[2] = female, human, in vivo
wild-type HIV virus = settings: cited from earlier work
[3] = non-compartmental analysis; ref [13]; cited from earlier work
[4] = Population pharmacokinetic co-modelling of blood plasma; settings: female, human
[5] = cited from earlier work
[6] = female, human, in vivo, CVF AUCτ:BP AUCτ ratio
[7] = female, human, in vivo, CVF AUCτ:BP fAUCτ ratio
[8] = first dose, median (25th, 75th percentiles), model-predicted
[9] = multiple dose, median (25th, 75th percentiles), model-predicted

For `COC(=O)N[C@H](C(=O)N[C@@H](Cc1ccccc1)[C@@H](O)CN(Cc1ccc(-c2ccccn2)cc1)NC(=O)[C@@H](NC(=O)OC)C(C)(C)C)C(C)(C)C` [Atazanavir, atazanavir], the AUC ([1]; female, human, in vivo, BP AUCτ, first dose, median (25th, 75th percentiles), model-predicted) was 25.3 ng·h/mL, the AUC ([1]; female, human, in vivo, BP AUCτ, multiple dose, median (25th, 75th percentiles), model-predicted) was 54.6 ng·h/mL and the AUC ([1]; female, human, in vivo, CVF AUCτ, first dose, median (25th, 75th percentiles), model-predicted) was 5.66 ng·h/mL. For the same compound, the AUC ([1]; female, human, in vivo, CVF AUCτ, multiple dose, median (25th, 75th percentiles), model-predicted) was 5.53 ng·h/mL, the Kp [1, 6] was 0.299 and the Kp [1, 7] was 2.14. The “BP fAUCτ (unbound)” value [1, 8] was 3.55 (0.867, 6.15) μg•h/L, the “BP fAUCτ (unbound)” value [1, 9] was 7.64 (1.61, 9.54) μg•h/L and the “ka,FD (first-order absorption rate constant, first dose)” value (“ka,FD” for short) [2] was 0.879 (79.5) [29.0] h^−1. The “tauFD (transit compartment transfer rate constant BP to CVF, first dose)” value (“tauFD” below) [2] was 0.773 (145) [52.8] h^−1, the “tauMD (transit compartment transfer rate constant BP to CVF, multiple dose)” value (shortened to “tauMD”) [2] was 1.41 (216) [85.2] h^−1 and the “IC50 (concentration producing 50 % inhibition of wild-type HIV virus)” value (wild-type HIV virus; ref [15]) was 11 ng/mL. For the same compound, the “penetration / exposure in CVF relative to BP (in words)” value [3] was “moderately penetrative” and the Vd ([4]; in vivo) was 10.4 L.

For `O=C1Nc2ccc(Cl)cc2[C@@](C#CC2CC2)(C(F)(F)F)O1` [Efavirenz, efavirenz], the AUC ([1]; female, human, CVF, oral, CVF AUCτ, multiple dose, median (25th, 75th percentiles), model-predicted) was 0.262 ng·h/mL, the AUC ([1]; female, human, cervicovaginal fluid, oral, CVF AUCτ, first dose, median (25th, 75th percentiles), model-predicted) was 0.0127 ng·h/mL and the “CVF AUCτ:BP fAUCτ ratio” value ([1]; female, human, in vivo) was 0.527 (0.298, 1.28). It also gave a Kp [1, 6] of 0.00527, an AUC ([1]; female, human, plasma, oral, BP AUCτ, first dose, median (25th, 75th percentiles), model-predicted) of 24.5 ng·h/mL and an AUC ([1]; female, human, plasma, oral, BP AUCτ, multiple dose, median (25th, 75th percentiles), model-predicted) of 46.7 ng·h/mL. The “BP fAUCτ (unbound)” value [1, 8] was 0.245 (0.161, 0.303) μg•h/L, the “BP fAUCτ (unbound)” value [1, 9] was 0.470 (0.339, 1.06) μg•h/L and the “ka,FD” value [2] was 1.75 (52.7) [18.9] h^−1. For the same compound, the “ka,MD (first-order absorption rate constant, multiple dose)” value [2] was 0.945 (139) [54.0] h^−1, the “tauFD” value [2] was 0.866 (208) [77.5] h^−1 and the “tauMD” value [2] was 0.383 (156) [55.8] h^−1. For the same compound, the “estimated fu (protein-unbound fraction in blood)” value ([5]; used in the model to control drug transfer into CVF, ref [14]–[17]) was 0.01, the “IC50 (concentration producing 50 % inhibition of wild-type HIV virus)” value (wild-type HIV virus; ref [36]) was 0.51 ng/mL and the “penetration / exposure in CVF relative to BP (in words)” value [3] was “very low penetration into CVF”. It also gave a Vd ([4]; cervicovaginal fluid, oral) of 2.55 L.

For `C[C@H](Cn1cnc2c(N)ncnc21)OCP(=O)(O)O` [Tenofovir, tenofovir], the “BP fAUCτ (unbound)” value ([1]; female, human, in vivo) was 2.38 (1.59, 4.35) μg•h/L, the AUC ([1]; female, human, in vivo, BP AUCτ) was 2.56 ng·h/mL and the AUC ([1]; female, human, in vivo, CVF AUCτ) was 4.18 ng·h/mL. For the same compound, the Kp [1, 6] was 1.57, the Kp [1, 7] was 1.68 and the “ka,FD” value [2] was 1.72 (61.1) [99.8] h^−1. For the same compound, the “ka,MD (first-order absorption rate constant, multiple dose)” value [2] was 1.05 (69.8) [30.0] h^−1, the “kg12 (transfer rate constant from CVF compartment 1 to 2)” value [2] was 0.525 (203) [63.6] h^−1 and the “kg21 (transfer rate constant from CVF compartment 2 to 1)” value [2] was 0.323 (97.6) [60.7] h^−1. For the same compound, the “tauFD” value [2] was 1.53 (106) [71.1] h^−1, the “tauMD” value [2] was 1.24 (103) [130] h^−1 and the protein binding ([5]; ref [16]) was less than 7%.

In the case of `Nc1ccn([C@@H]2CS[C@H](CO)O2)c(=O)n1` [Lamivudine, lamivudine], the “CVF AUCτ” value ([1]; female, human, in vivo, 150 mg) was 10.0 (6.07, 48.9) μg•h/L, the AUC ([1]; female, human, in vivo, 150 mg, BP AUCτ) was 3.86 ng·h/mL and the AUC ([1]; female, human, in vivo, 300 mg, BP AUCτ) was 10.1 ng·h/mL. The AUC ([1]; female, human, in vivo, 300 mg, CVF AUCτ) was 62.2 ng·h/mL and the protein binding ([5]; ref [17]) was 40%.
